Measurements: publication PMC5648829 (Scientific Reports, 2017)
pIC50: −log10 of the molar value. Where “and” joins values, the source holds several entries; their conditions need not be identical. Equal values may be shown once. Where a SMILES comes first, the peptide text is derived from it.

Experiments:
[1] = target: T1, LTA4H (Homo sapiens, UniProt P09960); assay: LTA4H aminopeptidase assay with surrogate substrate Ala-AMC; assay type: biochemical; set-up: Full-length LTA4H containing a N-terminal (His)6-tag; (His)6-tag (N, cleaved yes); (Gly3-Ser)3 spacer (N, cleaved yes); made in house; host or cells: E. coli BL21 (DE3) star; conditions: for Effect on Ala-AMC hydrolysis: Table 1, whether compound increased or inhibited hydrolysis of Ala-AMC by the enzyme; for pIC50: Table 2
T1 sequence (P09960 1-611): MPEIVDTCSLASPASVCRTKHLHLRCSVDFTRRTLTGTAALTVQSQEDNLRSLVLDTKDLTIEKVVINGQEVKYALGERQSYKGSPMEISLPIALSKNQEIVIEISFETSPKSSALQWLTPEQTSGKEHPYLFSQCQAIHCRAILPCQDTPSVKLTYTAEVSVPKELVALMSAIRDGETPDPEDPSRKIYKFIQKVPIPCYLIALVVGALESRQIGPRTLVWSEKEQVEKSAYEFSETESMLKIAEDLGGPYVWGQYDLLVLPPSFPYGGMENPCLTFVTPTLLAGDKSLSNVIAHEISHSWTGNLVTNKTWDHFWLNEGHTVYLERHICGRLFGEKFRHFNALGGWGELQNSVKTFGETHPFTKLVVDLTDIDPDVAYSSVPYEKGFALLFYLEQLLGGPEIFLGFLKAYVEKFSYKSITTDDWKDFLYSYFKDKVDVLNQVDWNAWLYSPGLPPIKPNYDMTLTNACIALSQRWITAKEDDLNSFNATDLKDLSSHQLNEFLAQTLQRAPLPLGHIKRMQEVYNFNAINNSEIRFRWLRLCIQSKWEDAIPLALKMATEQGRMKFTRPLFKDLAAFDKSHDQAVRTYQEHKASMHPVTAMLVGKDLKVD
Method: (§1) The LTA4H aminopeptidase assays were run using several surrogate substrates: Arg-Rho110-D-Pro (Arg-Rho, Biosyntan GmbH, Germany) or Arg-AMC (Bachem, Switzerland), Pro-AMC (Bachem, Switzerland) and Ala-AMC (Bachem, Switzerland). Assays were performed at RT in 1536-well plates in Tris buffer, pH 7.2 containing NaCl (100 mM), CaCl2 (2 mM), CHAPS (0.5%) and BSA (0.1%). […] The reaction was incubated between 1–2 h (depending on substrate) prior to reading the increase in fluorescence on an EnVision.

[2] = target: T1, LTA4H; assay: LTA4H aminopeptidase assay with surrogate substrate Pro-AMC; assay type: biochemical; set-up: Full-length LTA4H containing a N-terminal (His)6-tag; (His)6-tag (N, cleaved yes); (Gly3-Ser)3 spacer (N, cleaved yes); made in house; host or cells: E. coli BL21 (DE3) star
Method: as §1

[3] = target: T1, LTA4H; assay: PGP peptidolysis assay by LC-MS/MS; assay type: biochemical; set-up: Full-length LTA4H containing a N-terminal (His)6-tag; (His)6-tag (N, cleaved yes); (Gly3-Ser)3 spacer (N, cleaved yes); made in house; host or cells: E. coli BL21 (DE3) star
Method: The aminopeptidase activity of LTA4H was assessed with H-PGP-OH (Bachem, Switzerland) as substrate. Assays were performed at RT in black 384-well low volume plates (Greiner) and analyzed by LC-MS/MS. All compounds were tested as 8 point dose response curves in triplicates included on every plate. 3 µl of compound diluted in assay buffer (Tris (50 mM), NaCl (150 mM), CaCl2 (10 mM) at pH7.5) was transferred to the plate followed by 3 µl of enzyme solution (20 nM LTA4H in assay buffer). The enzyme compound mixture was incubated at room temperature for 15 min prior to the addition of 6 µl substrate solution (800 µM PGP in assay buffer). Upon addition of the substrate, the plate was placed on a shaker at 25 °C for 40 min. The reaction was stopped by addition of 12 µl formic acid (0.2% v/v). The final concentration of the enzyme in the assay was 5 nM, the PGP 400 µM and the compound concentration range was from 50000 nM to 3.2 nM. For peptide quantification, an HPLC instrument from Agilent Series 1290 (binary high pressure gradient system) with detectors UV, fluorescence and mass (single Quad) detectors was used. HPLC was done using an Atlantis T3 column (C18 100 × 2.1mm, […], 100 Å) with A: water (MQ) + 0.1% formic acid and B: acetonitrile + 0.1% formic acid: 0–0.3 min 0% buffer B, then increased to 100% buffer B at 0.31–0.65 min and again decreased to 0% buffer B at 0.66–0.70 min. Flow was set to 1.5 ml/min with start gradient pressure of 400 bar.

[4] = target: T1, LTA4H; assay: LTA4H aminopeptidase assay with surrogate substrate Arg-AMC; assay type: biochemical; set-up: Full-length LTA4H containing a N-terminal (His)6-tag; (His)6-tag (N, cleaved yes); (Gly3-Ser)3 spacer (N, cleaved yes); made in house; host or cells: E. coli BL21 (DE3) star
Method: as §1

[5] = PGP degradation assay in BALF ex-vivo (LC-MS/MS); assay type: in vitro ADME, mouse; conditions: BALF of wt and LTA4H-KO mice, 24 h at 37 °C, compared with PBS
Method: 200 µl of BALF were spiked with PGP and Ac-PGP at the final concentration of 10 nM. […] After incubation, samples were filtered (Amicon Ultra-0.5, Membrane Ultracel-30, PMNL 30 kD) by centrifugation (3 min at 10,000 × g). Filtered samples were transferred to vials for liquid chromatography tandem mass spectrometry (LC-MS/MS) analysis. The LC system consisted of an Acquity UPLC I-Class interfaced with a Xevo-TQS triple quadruple MS (Waters). […] PGP was monitored with MRM m/z transitions of 270.1 > 173.1 (quantifier) and 270.1 > 70.1 and 270.1 > 116.1 (qualifiers). Ac-PGP was monitored with m/z transitions of 312.2 > 112.1 (quantifier) and 312.2 > 116.1 and 312.2 > 140.1 (qualifiers).

[6] = tested on: human neutrophils; assay: Human neutrophil shape change assay; assay type: cell-based; conditions: isolated human neutrophils
Method: Neutrophils were purified by Ficoll density gradient centrifugation from human blood and incubated with graded concentrations of PGP, Ac-PGP or the known neutrophil chemoattractant GROα in assay buffer containing BSA (0.1%) in PBS for 10 min at 37 °C, 5% CO2 and 90% humidity. Cells were then fixed and shape change analyzed by flow cytometry.

[7] = tested on: human neutrophils; assay: Human neutrophil chemotaxis assay; assay type: cell-based
Method: Purified human neutrophils were labeled with calcein-AM (Fluka, Buchs, Switzerland). Test compounds (PGP, Ac-PGP, RTR, and Ac-RTR) or IL-8 (Sigma) as positive chemoattractant control were diluted in RPMI containing BSA (0.1%) and added at graded concentrations into the wells of a 96-well ChemoTX plate (3.2 mm diameter, 5 µm pore size; NeuroProbe, Gaithersburg, MD). Labeled cells (50,000 per well) were added onto the filters above the wells that received the test compounds. Plates were incubated for 90 min at 37 °C. The filters were removed and fluorescence in the receiving wells was measured using a SpectraMAX Gemini EM instrument (Molecular Devices, Sunnyvale, CA; λex = 485 nm; λem = 538 nm). The chemotactic index was measured as the ratio of fluorescence in the test wells and in control (buffer only) wells.

[8] = Table 1, read-out: IC50 Pro-AMC
[9] = Table 1, average of minimum two biological replicates, read-out: IC50 Arg-AMC
[10] = Table 2, read-out: IC50 Pro-AMC
[11] = Table 2, read-out: IC50 Arg-AMC

Molecule | Effect on Ala-AMC hydrolysis [1] | pIC50 [2, 8] | Ratio IC50 PGP/Arg-AMC ([3]; Table 1) | pIC50 ([3]; Table 1, read-out: IC50 PGP) | pIC50 [4, 9] | further results
COc1ccc(Cc2ccccc2)cc1 [4-MDM, 4-Methoxydiphenylmethane, reference compound] | increase | 4.47 | 0.42 | 5.37 | 4.99 | –
Nc1nc(-c2ccc(Cc3ccccc3)cc2)cs1 [ARM-1, 4-(4-benzylphenyl) thiazol-2-amine, reference compound] | increase | 5.99 | 0.40 | 6.41 | 6.01 | –
CC(=O)N1CCC[C@H]1C(=O)NCC(=O)N1CCC[C@H]1C(=O)O [Ac-PGP, N-acetly-Pro-Gly-Pro] (Ac-Pro-Gly-Pro-OH) | – | – | – | – | – | Ac-PGP stability in exudates [5]: remained as stable over 24 h at 37 °C as in PBS
c1ccc(Cc2ccc(-c3c[nH]cn3)cc2)cc1 [Compound 2, 4-(4-benzylphenyl)-1H-imidazole] | increase | 6.55 | 1.4 | 6.42 | 6.57 | –
c1ccc(Oc2ccc(-c3c[nH]cn3)cc2)cc1 [Compound 6, 5-(4-phenoxyphenyl)-1H-imidazole] | – | – | – | – | – | pIC50 [2]: 7.11; pIC50 [3]: 7.35; pIC50 [4]: 7.19
Cn1cnc(-c2ccc(Oc3ccccc3)cc2)c1 [Compound 7, 1-methyl-4-(4-phenoxyphenyl)-1H-imidazole] | increase | 5.77 | 0.49 | 5.85 | 5.54 | –
Oc1cc(-c2ccc(Oc3ccccc3)cc2)n[nH]1 [Compound 8, 3-(4-phenoxyphenyl)-1H-pyrazol-5-ol] | increase | 5.87 | 1.44 | 5.73 | 5.89 | –
c1ccc(Oc2ccc(-c3cc[nH]c3)cc2)cc1 [Compound 9, 3-(4-phenoxyphenyl)-1H-pyrrole] | increase | 6.33 | 0.07 | 7.46 | 6.32 | –
OCc1ccc(Oc2nc3ccccc3s2)cc1 [Compound 14] | – | – | – | – | – | pIC50 [1]: < 4.60; pIC50 [2, 10]: 6.82; Ratio IC50 PGP/Arg-AMC ([3]; Table 2, fold selectivity): 0.34; pIC50 ([3]; Table 2, read-out: IC50 PGP): 7.12; pIC50 [4, 11]: 6.65
O=Cc1ncc(Oc2nc3ccccc3s2)cn1 [Compound 16] | – | – | – | – | – | pIC50 [1]: < 4.60; pIC50 [2, 10]: 4.80; pIC50 ([3]; Table 2, read-out: IC50 PGP): 4.95; pIC50 [4, 11]: 5.59
O=Cc1ccc(Oc2nc3ncccc3s2)cn1 [Compound 17, 5-(thiazolo[4,5-b]pyridin-2-yloxy)picolinaldehyde] | – | – | – | – | – | pIC50 [1]: 6.26; pIC50 [2, 10]: 6.25; Ratio IC50 PGP/Arg-AMC ([3]; Table 2, fold selectivity): 14 and 13.5; pIC50 ([3]; Table 2, read-out: IC50 PGP): 5.95; pIC50 [4, 11]: 7.09
GROα: known chemokine and neutrophil chemoattractant | – | – | – | – | – | ED50 neutrophil shape change [6]: approximately 0.2 nM
IL-8: positive chemoattractant control | – | – | – | – | – | neutrophil chemotaxis ([7]; concentration as low as 10 nM): substantial chemotaxis
arginine-threonine-arginine [RTR] | – | – | – | – | – | neutrophil chemotaxis ([7]; graded concentrations up to mM range, 90 min at 37 °C): entirely negative
